# Reference: ChEMBL document CHEMBL1921784, “Benzobistriazinones and related heterocyclic ring systems as potent, orally bioavailable positive allosteric AMPA receptor modulators” (Bioorg Med Chem Lett, 2011)
# Active and inactive are the calls of the source. No cut-off for these calls is given here.
# Legend:
# Rattus norvegicus [1] = experiment: Positive allosteric modulation of AMPA receptor in Sprague-Dawley rat adult hippocampus dentate gyrus assessed as increase in field excitatory postsynaptic potential amplitude at 5 mg/kg, ip infused for 30 mins relative to baseline; format: functional
# Rattus norvegicus [2] = species on record: Rattus norvegicus; experiment: Positive allosteric modulation of AMPA receptor in Sprague-Dawley rat embryonic hippocampal neuron assessed as concentration required to double the steady-state glutamate-induced current by patch-clamp assay; conditions: Hippocampus
# Rattus norvegicus [3] = experiment: Positive allosteric modulation of AMPA receptor in Sprague-Dawley rat adult hippocampus dentate gyrus assessed as increase in field excitatory postsynaptic potential amplitude at 20 mg/kg, ip infused for 30 mins relative to baseline; format: functional; conditions: route intraperitoneal
# Rattus norvegicus [4] = experiment: Positive allosteric modulation of AMPA receptor in Sprague-Dawley rat adult hippocampus dentate gyrus assessed as increase in field excitatory postsynaptic potential amplitude at 10 mg/kg, ip infused for 30 mins relative to baseline; format: functional; conditions: route intraperitoneal
# [5] = Half life in dog; format: ADME, organism-based, Canis lupus familiaris; conditions: in vivo
# [6] = Half life in rat; format: ADME, organism-based; conditions: in vivo
# [7] = Oral bioavailability in rat; format: ADME, organism-based; conditions: in vivo
# Rattus norvegicus [8] = experiment: Positive allosteric modulation of AMPA receptor in Sprague-Dawley rat adult hippocampus dentate gyrus assessed as increase in field excitatory postsynaptic potential amplitude at 3 mg/kg, ip infused for 30 mins relative to baseline; format: functional; conditions: route intraperitoneal
# Rattus norvegicus [9] = experiment: Positive allosteric modulation of AMPA receptor in Sprague-Dawley rat adult hippocampus dentate gyrus assessed as increase in field excitatory postsynaptic potential amplitude at 1 mg/kg, ip infused for 30 mins relative to baseline; format: functional; conditions: route intraperitoneal
# [10] = Oral bioavailability in cynomolgus monkey; format: ADME, organism-based, Macaca fascicularis; conditions: in vivo
# [11] = Half life in cynomolgus monkey; format: ADME, organism-based, Macaca fascicularis; conditions: in vivo
CD (Rattus norvegicus [2]),SMILES,Activity (Rattus norvegicus [1]; route intraperitoneal),other results
0.09 µM,C[C@H](Cn1ccnn1)n1nnc2cc3c(=O)n(C)nnc3cc2c1=O,7%,
0.08 µM,C[C@H](Cn1cnnn1)n1nnc2cc3c(=O)n(C)nnc3cc2c1=O,19%,
,C[C@H](Cn1nccn1)n1cnc2cc3c(=O)n(C)nnc3cc2c1=O,,Activity (Rattus norvegicus [3]): 30%
,C#C[C@H](Cn1ncnn1)n1nnc2cc3c(=O)n(C4CC4)nnc3cc2c1=O,4%,
,C[C@H](Cn1ncc(C#N)n1)n1cnc2cc3c(=O)n(C4CC4)nnc3cc2c1=O,,Activity (Rattus norvegicus [4]): 3%
,O=c1c2cc3nnn(C4CC4)c(=O)c3cc2nnn1CCn1ncnn1,1%,
,C[C@H](Cn1ccnn1)n1cnc2cc3c(=O)n(C)nnc3cc2c1=O,,Activity (Rattus norvegicus [3]): 5%
0.6 µM,C[C@H](Cn1ncnn1)n1cnc2cc3c(=O)n(C4CC4)nnc3cc2c1=O,33%,half-life [5]: 4.8 h; half-life [6]: 1.6 h; bioavailability [7]: 100%
,O=c1c2cc3nnn(C4CC4)c(=O)c3cc2ncn1CCn1ncnn1,7%,
0.57 µM,C#CCn1nnc2cc3c(=O)n([C@H](C)Cn4ncnn4)nnc3cc2c1=O,20%,
1.3 µM,C[C@H](Cn1nccn1)n1nnc2cc3c(=O)n(C4CC4)nnc3cc2c1=O,,Activity (Rattus norvegicus [4]): 12%
0.07 µM,C[C@H](Cn1cnnn1)n1nnc2cc3c(=O)n(C4CC4)nnc3cc2c1=O,11%,
,C[C@H](Cn1cccn1)n1cnc2cc3c(=O)n(C4CC4)nnc3cc2c1=O,,Activity (Rattus norvegicus [4]): 20%
0.06 µM,C[C@H](Cn1ccnn1)n1nnc2cc3c(=O)n([C@H](C)Cn4ccnn4)nnc3cc2c1=O,,Activity (Rattus norvegicus [8]): 0%
0.03 µM,C[C@H](Cn1ncnn1)n1cnc2cc3c(=O)n([C@H](C)Cn4ncnn4)cnc3cc2c1=O,0%,
,C[C@H](Cn1cc(C#N)cn1)n1cnc2cc3c(=O)n(C4CC4)nnc3cc2c1=O,2%,
2.1 µM,C[C@H](Cn1nccn1)n1nnc2cc3c(=O)n(C)nnc3cc2c1=O,7%,
0.45 µM,C#C[C@H](Cc1cccc(F)c1)n1nnc2cc3c(=O)n(C4CC4)nnc3cc2c1=O,1%,
0.7 µM,C[C@H](CNS(C)(=O)=O)n1nnc2cc3c(=O)n(C4CC4)nnc3cc2c1=O,,Activity (Rattus norvegicus [1]): inactive
0.44 µM,CC(C)n1nnc2cc3c(=O)n([C@H](C)Cn4ncnn4)nnc3cc2c1=O,26%,
,C[C@H](Cn1ncnn1)n1nnc2cc3c(cc2c1=O)OCN(C1CC1)C3=O,,half-life [6]: 0.27 h
0.4 µM,C[C@H](Cn1nccn1)n1nnc2cc3c(=O)n([C@H](C)Cn4nccn4)nnc3cc2c1=O,9%,
0.02 µM,C[C@H](Cn1ncnn1)n1cnc2cc3c(=O)n([C@H](C)Cn4cnnn4)nnc3cc2c1=O,1%,
1 µM,C[C@H](Cn1ncnn1)n1nnc2cc3c(=O)n(C4CC4)cnc3cc2c1=O,16%,

CD (Rattus norvegicus [2]),SMILES,Activity (Rattus norvegicus [1]; route intraperitoneal),other results
0.37 µM,C[C@H](Cn1ccnn1)n1nnc2cc3c(=O)n(C4CC4)nnc3cc2c1=O,,Activity (Rattus norvegicus [4]): 24%
0.09 µM,C[C@H](Cn1cccn1)n1cnc2cc3c(=O)n([C@H](C)Cn4cccn4)cnc3cc2c1=O,2%,
,C[C@H](Cn1ncnn1)n1cnc2cc3c(=O)n(CC(F)(F)F)nnc3cc2c1=O,,Activity (Rattus norvegicus [4]): 7%
,C=CCn1nnc2cc3c(=O)n([C@H](C)Cn4ncnn4)nnc3cc2c1=O,12%,
1.4 µM,C[C@H](Cn1ncnn1)n1cnc2cc3c(=O)n(C4CC4)cnc3cc2c1=O,2%,
,C[C@H](Cn1ncnn1)n1cnc2cc3c(=O)n(CC(F)F)nnc3cc2c1=O,,Activity (Rattus norvegicus [3]): 16%
0.5 µM,C#CCn1nnc2cc3c(=O)n([C@H](C)Cn4ncnn4)cnc3cc2c1=O,11%,
0.016 µM,C[C@H](Cn1ncnn1)n1nnc2cc3c(=O)n([C@H](C)Cn4ncnn4)nnc3cc2c1=O,,Activity (Rattus norvegicus [9]): 59%
0.008 µM,C[C@H](Cn1ncnn1)n1cnc2cc3c(=O)n([C@H](C)Cn4ncnn4)nnc3cc2c1=O,,Activity (Rattus norvegicus [9]): 43%
0.25 µM,Cc1nnnn1C[C@@H](C)n1nnc2cc3c(=O)n(C4CC4)nnc3cc2c1=O,8%,
,COCCn1nnc2cc3c(=O)n([C@H](C)Cn4ncnn4)nnc3cc2c1=O,34%,
3.1 µM,Cc1nnn(C[C@@H](C)n2nnc3cc4c(=O)n(C5CC5)nnc4cc3c2=O)n1,7%,
0.07 µM,C[C@H](Cn1cnnn1)n1cnc2cc3c(=O)n(C4CC4)nnc3cc2c1=O,2%,
,C[C@H](Cn1ncc(C#N)n1)n1nnc2cc3c(=O)n(C4CC4)nnc3cc2c1=O,17%,
,C[C@H](Cn1ncnn1)n1cnc2cc3c(=O)n(C)nnc3cc2c1=O,63%,
0.3 µM,CCn1nnc2cc3c(=O)n([C@H](C)Cn4ncnn4)nnc3cc2c1=O,34%,
,C[C@H](Cn1nccn1)n1cnc2cc3c(=O)n(C4CC4)nnc3cc2c1=O,,Activity (Rattus norvegicus [4]): 9%
0.28 µM,C[C@H](Cn1ncnn1)n1nnc2cc3c(=O)n(C4CC4)nnc3cc2c1=O,37%,half-life [5]: 3 h; bioavailability [10]: 100%; half-life [6]: 1.7 h; half-life [11]: 9.5 h; bioavailability [7]: 100%
1.1 µM,C[C@H](Cn1cncn1)n1nnc2cc3c(=O)n(C4CC4)nnc3cc2c1=O,7%,
,C[C@H](Cn1ncnn1)n1cnc2cc3c(=O)n(CCF)nnc3cc2c1=O,,Activity (Rattus norvegicus [4]): 32%
0.07 µM,C[C@H](Cn1nccn1)n1nnc2cc3c(=O)n([C@H](C)Cn4ncnn4)nnc3cc2c1=O,,Activity (Rattus norvegicus [8]): 26%
,CC#CCn1nnc2cc3c(=O)n([C@H](C)Cn4ncnn4)nnc3cc2c1=O,43%,
0.25 µM,C#CCn1nnc2cc3c(=O)n([C@H](C)Cn4cnnn4)cnc3cc2c1=O,1%,
0.28 µM,C[C@H](Cn1ncnn1)n1nnc2cc3c(=O)n(C)nnc3cc2c1=O,46%,
